This note sets out measurements from patent publication US20150315188A1, “COMPOUNDS AND METHODS FOR TREATMENT OF HYPERTENSION” (MEDIVATION TECHNOLOGIES, INC., priority 2012, published 2015).

Format in all cases: cell-based
Assay [1] addresses T1, Human adrenergic α1B receptor (Homo sapiens, UniProt P35368).
T1 sequence (P35368 1-520): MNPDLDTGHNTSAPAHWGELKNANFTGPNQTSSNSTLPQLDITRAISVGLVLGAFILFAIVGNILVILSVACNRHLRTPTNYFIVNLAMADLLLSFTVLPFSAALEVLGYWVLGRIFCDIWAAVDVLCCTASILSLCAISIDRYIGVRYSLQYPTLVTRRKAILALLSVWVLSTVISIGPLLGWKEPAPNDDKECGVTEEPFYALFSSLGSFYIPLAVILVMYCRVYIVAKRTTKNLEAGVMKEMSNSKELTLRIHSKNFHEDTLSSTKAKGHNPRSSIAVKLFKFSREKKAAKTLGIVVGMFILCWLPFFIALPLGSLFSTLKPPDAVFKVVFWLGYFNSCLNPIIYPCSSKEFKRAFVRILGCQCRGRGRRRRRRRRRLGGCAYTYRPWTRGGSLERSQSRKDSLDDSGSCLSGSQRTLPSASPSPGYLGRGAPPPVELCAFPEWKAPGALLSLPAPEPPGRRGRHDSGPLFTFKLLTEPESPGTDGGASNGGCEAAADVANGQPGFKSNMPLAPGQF
The experiment in a line: β-Arrestin GPCR functional assay, adrenergic α1B (Protocol B). The settings on record: for IC50: β-arrestin, antagonist vs nor-epinephrine EC80. The protocol: To evaluate the activity of compounds in β-Arrestin GPCR functional assays, recombinant CHO cell line (DiscoveRX), over expressed with human adrenergic α1B receptor were used. The experiment was done with a kit of DiscoveRX as per recommended protocol of the supplier. Cells were harvested from culture flask using cell dissociation solution (CDS) and plated at a density of 12,000 cells/well in CP reagent (supplied with the kit) in a half area 96-well white polystyrene plate. After 24 h incubation at 37° C., compounds at various concentrations in 1% (final) DMSO were charged to the cells for 30 min at 37° C. Active nor-epinephrine (-NE) at its EC80 concentrations (50 nM) were then added to the cells and incubated for another 90 min at 37° C. Detection mix was prepared by mixing Path Hunter cell assay buffer, Emerald II solution and Galactone star solution in a ratio of 19:5:1 and incubated with the cells for 60 min at RT in the dark. The reading was taken in Envision at luminescence mode. Biochemical assay results are presented as the percent Inhibition in Table B2a, or IC50 values in Table B2b.

Assay [2] addresses T2, Human adrenergic α2A receptor (Homo sapiens, UniProt P08913).
T2 sequence (P08913 1-465): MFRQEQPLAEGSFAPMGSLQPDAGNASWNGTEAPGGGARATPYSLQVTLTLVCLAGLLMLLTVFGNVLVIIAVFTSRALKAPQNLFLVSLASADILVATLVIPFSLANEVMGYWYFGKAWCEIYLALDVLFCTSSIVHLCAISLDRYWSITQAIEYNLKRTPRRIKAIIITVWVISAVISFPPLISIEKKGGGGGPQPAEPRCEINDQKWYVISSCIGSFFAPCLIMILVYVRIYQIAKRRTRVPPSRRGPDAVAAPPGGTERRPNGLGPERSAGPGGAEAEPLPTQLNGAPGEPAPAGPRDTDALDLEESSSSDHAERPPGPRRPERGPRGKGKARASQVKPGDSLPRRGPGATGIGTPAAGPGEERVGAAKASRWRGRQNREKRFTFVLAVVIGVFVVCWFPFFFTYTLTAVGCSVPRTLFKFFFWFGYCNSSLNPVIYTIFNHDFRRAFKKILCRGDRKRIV
Description: β-Arrestin GPCR functional assay, adrenergic α2A (Protocol B). Particulars: for IC50: β-arrestin, antagonist vs nor-epinephrine EC80. Summed up:
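Antagonist mode: after 30 min compound pretreatment at 37 °C, 270 nM norepinephrine (EC80) was added for 90 min to CHO cells expressing human α2A. Luminescent enzyme-complementation detection (60 min, RT) quantified β-arrestin recruitment, expressed as percent inhibition or IC50.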

Assay [3] has as its target T3, Human adrenergic α2B receptor (Homo sapiens, UniProt P18089).
T3 sequence (P18089 1-450): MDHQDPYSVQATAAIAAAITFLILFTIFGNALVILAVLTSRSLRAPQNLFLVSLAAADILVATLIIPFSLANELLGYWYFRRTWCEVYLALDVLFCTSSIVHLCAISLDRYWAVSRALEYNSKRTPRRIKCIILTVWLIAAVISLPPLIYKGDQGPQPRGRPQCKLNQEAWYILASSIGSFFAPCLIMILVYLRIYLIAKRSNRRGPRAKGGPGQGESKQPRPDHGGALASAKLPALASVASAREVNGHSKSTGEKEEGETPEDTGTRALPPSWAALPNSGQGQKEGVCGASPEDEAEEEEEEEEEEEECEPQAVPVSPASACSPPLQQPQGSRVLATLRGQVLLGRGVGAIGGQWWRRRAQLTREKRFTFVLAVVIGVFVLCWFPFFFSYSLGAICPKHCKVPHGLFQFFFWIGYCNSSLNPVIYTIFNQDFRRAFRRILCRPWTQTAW
Description: β-Arrestin GPCR functional assay, adrenergic α2B (Protocol B). The settings on record: for IC50: β-arrestin, antagonist vs nor-epinephrine EC80, read-out: IC50 Adrenergic α2B. Summed up: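 CHO cells overexpressing human α2B (PathHunter β-arrestin), 12,000 per well, 24 h at 37° C; compounds in 1% DMSO 30 min, then 50 nM norepinephrine (EC80) 90 min at 37° C.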

The term IC50 denotes the concentration at which inhibition is half-maximal. What is called inhibition is the relative decrease from the control value, in per cent.

`OC(Cn1c2c(c3cc(Cl)cc(F)c31)C1CCCN1CC2)c1ccncc1` (single isomer, unassigned) [135b]: the results for the IC50 in assay [1], in assay [2] and in assay [3] were 102 nM, 295 nM and 9.27 nM, respectively.
For `Cc1cc(F)c2c(c1)c1c(n2CC(O)c2ccncc2)CCN2CCCC12` (single isomer, unassigned) [137a] the same measures were 114 nM, 5100 nM and 41.3 nM.
`Cc1cc(F)c2c(c1)c1c(n2CC(O)c2ccncc2)CCN2CCCC12` (single isomer, unassigned) [137b]: the IC50 was determined as 35.6 nM in assay [1], 185 nM in assay [2] and 6.57 nM in assay [3].
The matching figures for `Cc1ccc2c(c1)c1c(n2CC(OCC2CCC2)c2ccncc2)CCN2CCCC12` (single isomer, unassigned) [138a]: 72.2 nM, 413 nM and 17.2 nM.
In the case of `Cc1ccc2c(c1)c1c(n2CC(OCC2CCC2)c2ccncc2)CCN2CCCC12` (single isomer, unassigned) [138b], the IC50 amounted to 926 nM in assay [1], 1330 nM in assay [2] and 20.6 nM in assay [3].
Take `Cc1ccc2c(c1)c1c(n2CC(O)c2ccncc2)CC[N+]2([O-])CCCC12` (stereo not drawn) [compound 23, 7-(2-hydroxy-2-(pyridin-4-yl)ethyl)-10-methyl-1,2,3,4,5,6,7,11c-octahydroindolizino[7,8-b]indole 4-oxide]: the inhibition at 0.1 µM was determined as 15% in assay [1] (0.1 μM compound, nor-epinephrine at EC80 (50 nM), read-out: Percentage inhibition, Adrenergic α1B); 1% in assay [2] (0.1 μM compound, nor-epinephrine at EC80 (270 nM), read-out: Percentage inhibition, Adrenergic α2A); 27% in assay [3] (0.1 μM compound, nor-epinephrine at EC80 (50 nM), read-out: Percentage inhibition, Adrenergic α2B). Moreover, the inhibition at 0.3 µM in assay [1] (0.3 μM compound, nor-epinephrine at EC80 (50 nM), read-out: Percentage inhibition, Adrenergic α1B) came to 15%; in assay [2] (0.3 μM compound, nor-epinephrine at EC80 (270 nM), read-out: Percentage inhibition, Adrenergic α2A), 1%. Moreover, the IC50 in assay [1] amounted to 1210 nM; in assay [3] it was 382 nM. Further, the inhibition at 0.01 µM in assay [3] (10 nM compound, nor-epinephrine at EC80 (50 nM), read-out: Percentage inhibition, Adrenergic α2B) is 10%. The inhibition at 0.03 µM in assay [3] (30 nM compound, nor-epinephrine at EC80 (50 nM), read-out: Percentage inhibition, Adrenergic α2B) stood at 12%.
For the molecule `Cc1ccc2c(c1)c1c(n2C[C@@H](OC2CCCC2)c2ccncc2)CCN2CCC[C@H]12` [compound 82, (11cR)-7-[(25)-2-(cyclopentoxy)-2-(4-pyridyl)ethyl]-10-methyl-1,2,3,5,6,11c-hexahydroindolizino[7,8-b]indole], the half-maximal inhibitory concentration (IC50) in assay [1] was found to be 382 nM; in assay [2], 675 nM; in assay [3] it was 25.4 nM.
